Source: patent US9512161B2, “Hydroxyl, keto, and glucuronide derivatives of 3-(4-(7H-pyrrolo[2,3-D]pyrimidin-4-yl)-1H-pyrazol-1-yl)-3-cyclopentylpropanenitrile” (Incyte Corporation, priority 2009, dated 2016)

experiment: Metabolite profiling of plasma and urine from human subjects after administration of Compound I (HPLC-MS); format: in vivo; settings: human subjects dosed with Compound I; LC-MS detection
Procedure: Metabolites 1-39 were isolated from human, rat or dog urine, plasma, or feces after administration of Compound I in connection with pharmacokinetic and toxicokinetic studies. The identity of the metabolites were determined after isolation of the metabolite using HPLC methods. Tandem MS/MS analysis and higher order MS^n experiments were conducted as required to elucidate structural information.
Plasma samples from all subjects were pooled by subject and/or by time point. The pooled plasma samples were prepared for HPLC-Radiometric analysis as follows: Aliquots of the pooled plasma samples were initially extracted with approximately two equivalent (W/V) volumes of 1% formic acid in HPLC-grade acetonitrile, followed by vigorous vortexing, and centrifugation to remove denatured plasma proteins. The supernatant was reserved and passed through a pre-conditioned Waters C-18 Solid phase extraction cartridge, and the filtrate retained. The SPE cartridge was retained. The remaining plasma pellet was then extracted three times with 1% formic acid in HPLC-grade acetonitrile/water (90/10), with centrifugation after each extraction. All supernatants were reserved. Each formic acid/acetonitrile/water extraction supernatant was used to elute the SPE cartridge. The SPE cartridge was then rinsed with 1% formic acid in methanol. All eluants were retained, combined, and evaporated under a stream of nitrogen at 30° C. The remainder of this extraction was reconstituted in approximately 0.6 ml of 0.1% formic acid in water, vortexed and centrifuged to remove particulate matter. The supernatant was then analyzed by HPLC-Flow Radiometry and HPLC-MS.
Aliquots of approximately equal amounts of urine from each of the subjects were pooled to represent appropriate time intervals post-dose. Prior to HPLC-Radiometric analysis, each pooled urine sample was centrifuged at 4,000 rpm for 10 min to remove particulate matter, then analyzed directly.
All samples were analyzed by either HPLC-Flow radiometry or HPLC-MS using analytical systems that were as identical as practicable. The HPLC-Flow Radiometry system consisted of an Agilent HP 1100 series Quaternary pump, Autosampler, and UV detector interfaced with a Raytest Ramona-90 flow scintillation detector with a 500 μL liquid scintillation cell. […] Mobile phase “A” consisted of 0.1% formic acid in HPLC-grade water, with mobile phase “B” consisting of HPLC-grade methanol/acetonitrile (1:1). Elution of analytes was achieved through use of a linear increasing gradient of mobile phase “B”. Two different gradient elution methods were employed at various times as needed. Chromatographic conditions for these two methods are outlined below in Tables 3 and 4. […]

| Matrix in which the metabolite was observed/found | SMILES |
| --- | --- |
| urine | N#CCC(C1CCCC1)n1cc(-c2[nH]c(=O)nc3c2CC(=O)N3)cn1 (stereo not shown) [Compound 31, 3-cyclopentyl-3-(4-(2,6-dioxo-3,5,6,7-tetrahydro-2H-pyrrolo[2,3-d]pyrimidin-4-yl)-1H-pyrazol-1-yl)propanenitrile] |
| plasma and urine | N#CCC(C1CCCC1)n1cc(-c2ncnc3c2C(O)C(O)N3)cn1 (stereo not shown) [Compound 40, 3-cyclopentyl-3-(4-(5,6-dihydroxy-6,7-dihydro-5H-pyrrolo[2,3-d]pyrimidin-4-yl)-1H-pyrazol-1-yl)propanenitrile] |
| urine | N#CCC(C1CCCC1)n1cc(-c2ncnc3c2ccn3C2OC(C(=O)O)C(O)C(O)C2O)cn1 (stereo not shown) [Compound 41, 6-(4-(1-(2-cyano-1-cyclopentylethyl)-1H-pyrazol-4-yl)-7H-pyrrolo[2,3-d]pyrimidin-7-yl)-3,4,5-trihydroxytetrahydro-2H-pyran-2-carboxylic acid] |
| plasma and urine | N#CCC(C1CCCC1)n1cc(-c2nc(O)nc3c2C(=O)CN3)cn1 (stereo not shown) [Compound 32, 3-cyclopentyl-3-(4-(2-hydroxy-5-oxo-6,7-dihydro-5H-pyrrolo[2,3-d]pyrimidin-4-yl)-1H-pyrazol-1-yl)propanenitrile] |
